Measurements as given in patent US10981906B2, “Substituted pyrrolopyridine JAK inhibitors and methods of making and using the same” (ACLARIS THERAPEUTICS, INC., priority 2017, dated 2021).
Structures can show the parent of a compound that is named as a salt. Where two headings read alike, the source gives them in different places.

Assays:
[1] = test system: IL-2 stimulated STAT5 phosphorylation on Tyr694 (JAK1/3); experiment: JAK1/3 cellular target modulation: IL-2 stimulated phospho-STAT5 in PBMC; assay type: cell-based; conditions: IL-2 25 ng/ml, 1 hour compound preincubation, read-out: IL2-STAT5 Inhibition IC50
Source text: (§1) Target modulation was based upon the ability of a compound to inhibit JAK isoform specific phosphorylation of selected substrates. IL-2 stimulated STAT5 phosphorylation on Tyr694 was used to assess JAK1/3 compound selectivity. GM-CSF stimulated STAT5 phosphorylation on Tyr694 was used to assess JAK2 compound selectivity. IFNγ stimulated STAT1 phosphorylation on Tyr701 was used to assess JAK1/2 compound selectivity. For all three assays, human PBMC from frozen stocks were thawed, pelleted, resuspended in complete media (90% RPMI, 10% heat inactivated FBS, 10 mM HEPES, 47 μM 2-ME, pen/strep) and placed in wells of a 96 well V-bottom plate at 200,000 per well in 120 μl complete media. Compounds were added as 15 μl per well of 10× working stock solutions in complete media with 1% DMSO (or medium with 1% DMSO for controls) and placed on a plate shaker in a 37° C. incubator with 5% CO2 for 1 hour with gentle shaking (setting of 3). Stimulation used the addition of soluble cytokines. For the JAK1/3 phospho-STAT5 assay, 15 μl of 10× working stock recombinant human IL-2 was added to a final concentration of 25 ng/ml. For the JAK2 phospho-STAT5 assay, 15 μl of 10× working stock recombinant human GM-CSF was added to a final concentration of 5 ng/ml. For the JAK1/2 phospho-STAT1 assay, 15 μl of 10× working stock of recombinant human IFNγ was added to a final concentration of 10 ng/ml. Plates were then placed back on the plate shaker in the incubator for an additional 5, 5 and 10 minutes respectively upon which the plates were removed from the incubator, sealed with a plate sealer and the cells pelleted at 400×g for 5 minutes. After pelleting, the media was removed by aspiration and the cells were lysed in ELISA specific cell lysis buffer. The levels of phospho-STAT5 were determined using a Phospho (Tyr694)/Total STAT5a,b Whole Cell Lysate kit from Meso Scale Discovery. Levels of phospho-STAT1 were determined using a CST-PathScan Phospho-STAT1 (Tyr701) Sandwich ELISA kit.

[2] = test system: IFNγ stimulated STAT1 phosphorylation on Tyr701 (JAK1/2); experiment: JAK1/2 cellular target modulation: IFNγ stimulated phospho-STAT1 in PBMC; assay type: cell-based; conditions: Homo sapiens, PBMC, IFNγ 10 ng/ml, 1 hour compound preincubation, read-out: Infγ-STAT1 IC50
Source text: as §1

JAK3 (a.a. 781-1124) = JAK3 (a.a. 781-1124) (Homo sapiens (Human), UniProt P52333); experiment: JAK3 enzyme activity assay (SRCtide phosphorylation, Caliper); assay type: biochemical; conditions: 2.5 nM JAK3, 1 μM SRCtide, 1 uM ATP, 40 minutes; read-out: JAK3 Inhibition IC50
JAK3 (a.a. 781-1124), sequence (P52333 781-1124): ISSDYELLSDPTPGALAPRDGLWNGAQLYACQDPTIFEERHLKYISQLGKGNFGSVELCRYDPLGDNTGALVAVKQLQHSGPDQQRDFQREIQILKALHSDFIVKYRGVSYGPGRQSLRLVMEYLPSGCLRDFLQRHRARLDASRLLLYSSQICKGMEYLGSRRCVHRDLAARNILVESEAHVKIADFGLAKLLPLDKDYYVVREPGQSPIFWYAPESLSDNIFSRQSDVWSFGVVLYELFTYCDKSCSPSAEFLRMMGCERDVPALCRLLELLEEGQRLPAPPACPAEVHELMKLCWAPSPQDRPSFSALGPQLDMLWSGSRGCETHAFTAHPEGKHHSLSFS
Procedure: The activity of JAK3 (a.a. 781-1124, ThermoFisher) was quantified by measuring the phosphorylation of SRCtide (FAM-GEEPLYWSFPAKKK-NH2). Kinase reactions were run in a 384-well Greiner plate with 2% final DMSO concentration under the buffer conditions of 20 mM HEPES, pH 7.5, 10 mM MgCl2, 0.01% BSA, and 0.0005% Tween-20. The kinase reaction components were 2.5 nM JAK3, 1 μM SRCtide peptide and 1 uM ATP. Examples were tested in dose-response starting at 2 μM (11 concentrations, 3-fold serial dilution, duplicate reactions). The reactions were incubated at room temperature for 40 minutes, then stopped by adding a 1:1 volume of 30 mM EDTA in 20 mM HEPES, pH 7.5 (15 mM EDTA final). After the reaction was stopped, the phosphorylated and unphosphorylated peptides were separated and quantified using a Caliper LC3000/EZ-Reader system and HTS Well Analyzer Software (Caliper, A PerkinElmer Company, Hopkinton, Mass.). GraFit (Erithacus Software Ltd., Horley, U.K.) was used to calculate inhibitor potency by fitting dose-response data to the 4-parameter logistical IC50 equation.
(§2) Background signal is defined in the absence of enzyme and uninhibited signal is defined in the presence of vehicle (2% DMSO) alone. Compounds were evaluated in an 11 point dose-response ranging from […] to 0.34 nM. IC50 values of compounds are determined using a 4 parameter logistical fit of emission ratio as a function of the concentration of compound.

JAK1 = JAK1 (Homo sapiens (Human), UniProt P23458); experiment: JAK1 enzyme activity assay (Thermo Fisher SelectScreen Z-lyte); assay type: biochemical; conditions: 1 hour kinase reaction, read-out: JAK1 Inhibition IC50
JAK1, sequence (P23458 whole entry): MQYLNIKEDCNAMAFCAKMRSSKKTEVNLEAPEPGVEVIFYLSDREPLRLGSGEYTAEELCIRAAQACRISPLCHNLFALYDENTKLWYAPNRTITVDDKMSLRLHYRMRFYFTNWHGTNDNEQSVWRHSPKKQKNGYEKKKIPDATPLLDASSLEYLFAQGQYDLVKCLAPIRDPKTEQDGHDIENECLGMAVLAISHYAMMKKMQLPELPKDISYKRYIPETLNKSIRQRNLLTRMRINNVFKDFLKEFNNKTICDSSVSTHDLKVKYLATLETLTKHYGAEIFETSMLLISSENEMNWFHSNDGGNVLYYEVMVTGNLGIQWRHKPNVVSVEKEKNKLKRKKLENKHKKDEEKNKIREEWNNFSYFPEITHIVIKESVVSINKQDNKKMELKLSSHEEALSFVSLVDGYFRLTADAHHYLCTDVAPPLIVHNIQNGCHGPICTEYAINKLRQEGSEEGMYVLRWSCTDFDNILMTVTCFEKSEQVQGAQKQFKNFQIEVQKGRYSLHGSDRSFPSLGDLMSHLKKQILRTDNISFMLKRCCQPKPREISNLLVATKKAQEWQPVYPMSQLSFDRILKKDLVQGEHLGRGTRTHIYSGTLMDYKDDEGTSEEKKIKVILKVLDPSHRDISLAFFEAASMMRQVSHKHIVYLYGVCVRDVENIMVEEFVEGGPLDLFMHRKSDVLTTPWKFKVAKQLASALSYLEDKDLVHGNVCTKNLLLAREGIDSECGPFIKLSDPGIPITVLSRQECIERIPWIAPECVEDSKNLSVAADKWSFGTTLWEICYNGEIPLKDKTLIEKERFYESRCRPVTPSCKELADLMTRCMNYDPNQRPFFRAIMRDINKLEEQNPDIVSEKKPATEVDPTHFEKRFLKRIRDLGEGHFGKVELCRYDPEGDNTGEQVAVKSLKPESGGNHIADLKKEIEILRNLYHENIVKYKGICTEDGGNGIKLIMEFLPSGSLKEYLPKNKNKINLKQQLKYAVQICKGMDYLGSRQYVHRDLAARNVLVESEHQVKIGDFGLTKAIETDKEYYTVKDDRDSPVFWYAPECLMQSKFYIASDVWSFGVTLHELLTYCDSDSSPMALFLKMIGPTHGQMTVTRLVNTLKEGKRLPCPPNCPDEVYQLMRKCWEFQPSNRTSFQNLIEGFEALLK
Procedure: The inhibitory potency of candidate compounds of JAK1 done at Thermo Fisher Scientific in their Selectscreen using a Z-lyte assay. The 2×JAK1/Tyr 06 mixture is prepared in 50 mM HEPES pH 6.5, 0.01% BRIJ-35, 10 mM MgCl2, 1 mM EGTA, 0.02% NaN3. The final 10 μL of the Kinase Reaction consists of 21.2-91.5 ng JAK1 and 2 μM Tyr 06 in 50 mM HEPES pH 7.0, 0.01% BRIJ-35, 10 mM MgCl2, 1 mM EGTA, 0.01% NaN3. After the 1 hour Kinase Reaction incubation, 5 μL of a 1:128 dilution of Development Reagent is added.
as §2

Row | Compound | IC50 ([1]; Homo sapiens, PBMC) | IC50 [2] | IC50 (JAK3 (a.a. 781-1124)) | IC50 (JAK1) | IC50 ([1]; human PBMC)
1 | CCOC(=O)c1cnc2[nH]ccc2c1N[C@H]1CCC[C@@H](CCC#N)C1 (racemic) [Example 133, (rac)-(cis)-ethyl 4-((3-(2-cyanoethyl)cyclohexyl)amino)-1H-pyrrolo[2,3-b]pyridine-5-carboxylate] | ≤ 100 nM | 100 to 1000 nM | ≤ 10 nM | ≤ 10 nM | 
2 | CCOC(=O)c1cnc2[nH]ccc2c1N(C)[C@H]1CC[C@H](O)C1 (single isomer, unassigned) [Example 68A, (trans)-Ethyl 4-((-3-hydroxycyclopentyl)(methyl)amino)-1H-pyrrolo[2,3-b] pyridine-5-carboxylate] | > 1000 nM |  | 100 to 1000 nM | 100 to 1000 nM | 
3 | CCOC(=O)c1cnc2[nH]ccc2c1N(C)[C@@H]1CC[C@@H](O)C1 (single isomer, unassigned) [Example 68B, (trans)-Ethyl 4-((-3-hydroxycyclopentyl)(methyl)amino)-1H-pyrrolo[2,3-b]pyridine-5-carboxylate] | > 1000 nM |  | 10 to 100 nM | 100 to 1000 nM | 
4 | CCOC(=O)c1cnc2[nH]ccc2c1N(C)[C@H]1CC[C@H](OC(=O)CC#N)C1 (single isomer, unassigned) [Example 69, (trans)-ethyl 4-((3-(2-cyanoacetoxy)cyclopentyl)(methyl)amino)-1H-pyrrolo[2,3-b]pyridine-5-carboxylate] |  |  | 100 to 1000 nM | 100 to 1000 nM | > 1000 nM
5 | CCOC(=O)c1cnc2[nH]ccc2c1N(C)[C@H]1CC[C@H](OC(=O)CC#N)C1 (single isomer, unassigned) [Example 70, (trans)-ethyl 4-((3-(2-cyanoacetoxy)cyclopentyl)(methyl)amino)-1H-pyrrolo[2,3-b]pyridine-5-carboxylate] |  | > 1000 nM | 100 to 1000 nM | 10 to 100 nM | 100 to 1000 nM
6 | CCOC(=O)c1cnc2[nH]ccc2c1N(C)[C@H]1CC[C@H](CS(=O)(=O)NC)CC1 [Example 94, ethyl 4-(methyl((1r,4r)-4-((N-methylsulfamoyl)methyl)cyclohexyl)amino)-1H-pyrrolo[2,3-b]pyridine-5-carboxylate] |  |  | 10 to 100 nM |  | 
7 | C[C@@H]1CCN(C(=O)CC#N)C[C@@H]1Nc1c(C(=O)OC(C)(C)C)cnc2[nH]ccc12 [Example 119, tert-butyl 4-(((3R,4R)-1-(2-cyanoacetyl)-4-methylpiperidin-3-yl)amino)-1H-pyrrolo[2,3-b]pyridine-5-carboxylate] | > 1000 nM |  | 100 to 1000 nM | 100 to 1000 nM | 
8 | C[C@@H]1CCN(C(=O)CC#N)C[C@@H]1Nc1c(C(=O)O)cnc2[nH]ccc12 [Example 120, 4-(((3R,4R)-1-(2-cyanoacetyl)-4-methylpiperidin-3-yl)amino)-1H-pyrrolo[2,3-b]pyridine-5-carboxylic acid trifluoroacetic acid Salt] | > 1000 nM |  | 100 to 1000 nM | 100 to 1000 nM | 
9 | N#CCC(=O)N1CCC[C@@H](Nc2c(C(=O)O)cnc3[nH]ccc23)C1 [Example 121, (R)-4-((1-(2-cyanoacetyl)piperidin-3-yl)amino)-1H-pyrrolo[2,3-b]pyridine-5-carboxylic acid trifluoroacetic acid Salt] | > 1000 nM |  | 100 to 1000 nM | 100 to 1000 nM | 

Now from value to compound, other results behind:

Row | IC50 ([1]; Homo sapiens, PBMC) | IC50 [2] | IC50 (JAK3 (a.a. 781-1124)) | IC50 (JAK1) | Compound | IC50 ([1]; human PBMC)
10 | ≤ 100 nM | 100 to 1000 nM | ≤ 10 nM | ≤ 10 nM | CCOC(=O)c1cnc2[nH]ccc2c1NC1CCC(CCC#N)C1 (mixture of isomers) [Example 153, Ethyl 4-((3-(2-cyanoethyl)cyclopentyl)amino)-1H-pyrrolo[2,3-b]pyridine-5-carboxylate as a mixture of 2 stereoisomers] | 
11 | ≤ 100 nM | 100 to 1000 nM | ≤ 10 nM | ≤ 10 nM | CCOC(=O)c1cnc2[nH]ccc2c1N[C@H]1CCC[C@H](CCC#N)C1 (racemic) [Example 134, (rac)-(trans)-Ethyl 4-((3-(2-cyanoethyl)cyclohexyl)amino)-1H-pyrrolo[2,3-b]pyridine-5-carboxylate] | 
12 | 100 to 1000 nM | > 1000 nM | ≤ 10 nM | ≤ 10 nM | CCCOC(=O)c1cnc2[nH]ccc2c1N[C@H]1CCC[C@@H](CCC#N)C1 (racemic) [Example 139, (rac) (cis) propyl 4-((3-(2-cyanoethyl)cyclohexyl)amino)-1H-pyrrolo[2,3-b]pyridine-5-carboxylate] | 
13 | 100 to 1000 nM | 100 to 1000 nM | ≤ 10 nM | ≤ 10 nM | CCCOC(=O)c1cnc2[nH]ccc2c1N[C@H]1CCC[C@H](CCC#N)C1 (racemic) [Example 140, (rac)-(trans)-propyl 4-((3-(2-cyanoethyl)cyclohexyl)amino)-1H-pyrrolo[2,3-b]pyridine-5-carboxylate] | 
14 | 100 to 1000 nM | 100 to 1000 nM | ≤ 10 nM | 10 to 100 nM | COCCOC(=O)c1cnc2[nH]ccc2c1N[C@H]1CCC[C@H](CCC#N)C1 (racemic) [Example 148, racemic, trans-2-methoxyethyl 4-((3-(2-cyanoethyl)cyclohexyl)amino)-1H-pyrrolo[2,3-b]pyridine-5-carboxylate] | 
15 | ≤ 100 nM | 100 to 1000 nM | ≤ 10 nM | ≤ 10 nM | COC(=O)c1cnc2[nH]ccc2c1N[C@H]1CCC[C@H](CCC#N)C1 (racemic) [Example 151, trans-racemic-methyl 4-((3-(2-cyanoethyl)cyclohexyl)amino)-1H-pyrrolo[2,3-b]pyridine-5-carboxylate] | 
16 | ≤ 100 nM | 100 to 1000 nM | ≤ 10 nM | ≤ 10 nM | COC(=O)c1cnc2[nH]ccc2c1N[C@@H]1CCC[C@H](CCC#N)C1 (racemic) [Example 152, cis-racemic-methyl 4-((3-(2-cyanoethyl)cyclohexyl)amino)-1H-pyrrolo[2,3-b]pyridine-5-carboxylate] | 
17 | > 1000 nM |  | 10 to 100 nM | 100 to 1000 nM | CCOC(=O)c1cnc2[nH]ccc2c1N[C@H]1CCCN(C(=O)CC#N)C1 [Example 143, ethyl (S)-4-((1-(2-cyanoacetyl)piperidin-3-yl)amino)-1H-pyrrolo[2,3-b]pyridine-5-carboxylate] | 
18 | 100 to 1000 nM |  | 10 to 100 nM |  | CCOC(=O)c1cnc2[nH]ccc2c1N[C@@H]1CCCN(C(=O)[C@@H]2CC2(F)F)C1 [Example 156, ethyl 4-(((R)-1-((S)-2,2-difluorocyclopropane-1-carbonyl)piperidin-3-yl)amino)-1H-pyrrolo[2,3-b]pyridine-5-carboxylate] | 
